According to patent US20050282743A1, “Molecular interactions in cells” (Arbor Vita Corporation, priority 2001, published 2005):
Ends that are not written are not given here. Peptide text beside a SMILES is read from it. * marks the point of attachment. Biotin = O=C1N[C@H]2[C@H](CS[C@H]2CCCCC(=O)*)N1

Experiments:
Assay in all cases: G' assay (10 uM PL peptide), results of TABLE 7 and TABLE 12
Format in all cases: binding
[1] = target: T1, PDZ protein (GST-PDZ fusion) (Homo sapiens, UniProt Q14CM0); conditions: PDZ KIAA0316, PDZ Domain 1
T1 construct: made in house; host or cells: E. coli (DH5alpha, BL21 or JM109)
T1 sequence (Q14CM0 1-1322): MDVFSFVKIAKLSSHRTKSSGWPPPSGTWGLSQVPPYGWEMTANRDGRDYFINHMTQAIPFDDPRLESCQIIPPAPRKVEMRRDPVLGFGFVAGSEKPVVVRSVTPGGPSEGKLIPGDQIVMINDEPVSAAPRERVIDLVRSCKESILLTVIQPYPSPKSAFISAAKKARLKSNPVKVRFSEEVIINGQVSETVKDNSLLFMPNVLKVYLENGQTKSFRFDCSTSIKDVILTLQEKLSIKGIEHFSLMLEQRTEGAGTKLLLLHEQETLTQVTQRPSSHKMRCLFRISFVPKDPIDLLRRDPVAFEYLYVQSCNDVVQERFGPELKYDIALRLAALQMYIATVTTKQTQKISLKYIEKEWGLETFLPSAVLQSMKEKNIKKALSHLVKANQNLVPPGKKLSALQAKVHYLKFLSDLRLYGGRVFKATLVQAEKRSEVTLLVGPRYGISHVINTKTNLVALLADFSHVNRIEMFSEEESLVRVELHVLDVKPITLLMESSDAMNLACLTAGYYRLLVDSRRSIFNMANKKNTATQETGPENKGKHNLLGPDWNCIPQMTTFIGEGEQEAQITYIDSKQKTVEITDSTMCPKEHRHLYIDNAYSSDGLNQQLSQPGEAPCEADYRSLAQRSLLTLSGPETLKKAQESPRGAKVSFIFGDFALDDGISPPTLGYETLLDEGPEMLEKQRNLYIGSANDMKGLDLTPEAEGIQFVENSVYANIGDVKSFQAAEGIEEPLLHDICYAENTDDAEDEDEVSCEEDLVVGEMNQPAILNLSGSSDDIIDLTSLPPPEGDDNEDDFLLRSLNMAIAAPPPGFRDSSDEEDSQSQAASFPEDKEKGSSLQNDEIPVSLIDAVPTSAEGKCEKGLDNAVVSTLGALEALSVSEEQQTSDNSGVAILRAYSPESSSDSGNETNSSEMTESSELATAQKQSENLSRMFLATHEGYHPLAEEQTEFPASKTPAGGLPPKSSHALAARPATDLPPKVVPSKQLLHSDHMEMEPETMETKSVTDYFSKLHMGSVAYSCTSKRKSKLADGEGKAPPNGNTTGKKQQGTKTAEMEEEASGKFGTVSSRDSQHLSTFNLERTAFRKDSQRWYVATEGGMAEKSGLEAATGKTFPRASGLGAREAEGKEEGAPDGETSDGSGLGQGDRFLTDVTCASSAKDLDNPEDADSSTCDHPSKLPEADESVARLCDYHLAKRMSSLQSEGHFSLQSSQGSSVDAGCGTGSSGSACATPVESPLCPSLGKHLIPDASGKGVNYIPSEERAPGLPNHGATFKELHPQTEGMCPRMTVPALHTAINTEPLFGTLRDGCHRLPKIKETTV
How it was run: (§1)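 Binding classes derive from A450 nm of bound biotin-tagged PL peptide. A score of 5 needs A450 above 4 in more than two repeats.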

[2] = target: T2, PDZ protein (GST-PDZ fusion) (Homo sapiens, UniProt Q9Y2H9); conditions: PDZ KIAA0973, PDZ Domain 1
T2 construct: made in house; host or cells: E. coli (DH5alpha, BL21 or JM109)
T2 sequence (Q9Y2H9 whole entry, the tested form may be a part): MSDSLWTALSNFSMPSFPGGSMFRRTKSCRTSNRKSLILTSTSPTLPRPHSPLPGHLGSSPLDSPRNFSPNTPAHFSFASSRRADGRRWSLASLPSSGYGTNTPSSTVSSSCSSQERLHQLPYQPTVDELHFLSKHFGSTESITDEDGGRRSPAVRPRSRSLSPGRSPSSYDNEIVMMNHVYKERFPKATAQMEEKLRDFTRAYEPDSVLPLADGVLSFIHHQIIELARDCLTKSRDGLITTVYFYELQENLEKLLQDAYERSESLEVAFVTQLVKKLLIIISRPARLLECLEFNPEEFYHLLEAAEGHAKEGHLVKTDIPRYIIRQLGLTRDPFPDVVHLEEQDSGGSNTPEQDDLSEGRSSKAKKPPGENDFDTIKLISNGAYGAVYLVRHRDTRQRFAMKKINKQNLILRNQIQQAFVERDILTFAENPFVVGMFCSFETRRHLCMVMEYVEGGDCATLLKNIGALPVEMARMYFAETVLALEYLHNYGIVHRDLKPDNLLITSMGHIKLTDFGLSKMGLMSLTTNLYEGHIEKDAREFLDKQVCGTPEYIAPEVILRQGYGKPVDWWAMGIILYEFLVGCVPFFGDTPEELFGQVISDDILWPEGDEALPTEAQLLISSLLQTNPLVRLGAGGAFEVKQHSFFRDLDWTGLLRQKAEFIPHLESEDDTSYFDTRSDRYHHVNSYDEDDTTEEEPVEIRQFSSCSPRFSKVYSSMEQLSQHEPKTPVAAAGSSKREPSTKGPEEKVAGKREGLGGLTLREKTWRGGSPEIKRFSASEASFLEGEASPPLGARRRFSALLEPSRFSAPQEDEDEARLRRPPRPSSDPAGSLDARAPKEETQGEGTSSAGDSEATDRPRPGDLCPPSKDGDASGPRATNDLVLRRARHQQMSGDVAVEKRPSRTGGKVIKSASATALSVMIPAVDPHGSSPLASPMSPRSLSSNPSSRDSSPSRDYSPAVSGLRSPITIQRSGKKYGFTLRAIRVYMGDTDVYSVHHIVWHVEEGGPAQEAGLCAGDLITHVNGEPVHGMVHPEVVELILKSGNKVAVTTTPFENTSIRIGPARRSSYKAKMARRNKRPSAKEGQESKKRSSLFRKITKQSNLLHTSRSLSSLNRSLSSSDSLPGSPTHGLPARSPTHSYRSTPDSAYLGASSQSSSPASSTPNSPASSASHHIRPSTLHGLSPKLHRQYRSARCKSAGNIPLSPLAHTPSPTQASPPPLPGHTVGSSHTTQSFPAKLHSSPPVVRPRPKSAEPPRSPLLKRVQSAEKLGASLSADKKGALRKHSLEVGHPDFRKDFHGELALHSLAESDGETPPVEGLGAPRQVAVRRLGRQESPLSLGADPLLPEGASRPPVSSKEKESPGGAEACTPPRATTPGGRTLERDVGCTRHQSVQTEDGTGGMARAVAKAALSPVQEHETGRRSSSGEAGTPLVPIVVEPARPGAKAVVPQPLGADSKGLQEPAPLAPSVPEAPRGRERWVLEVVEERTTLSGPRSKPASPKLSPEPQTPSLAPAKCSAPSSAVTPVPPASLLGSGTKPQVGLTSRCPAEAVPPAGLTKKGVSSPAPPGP
How it was run: as §1

[3] = target: T3, PDZ protein (GST-PDZ fusion) (Homo sapiens, UniProt Q96RT1); conditions: PDZ Erbin, PDZ Domain 1
T3 construct: made in house; host or cells: E. coli (DH5alpha, BL21 or JM109)
T3 sequence (Q96RT1 whole entry, the tested form may be a part): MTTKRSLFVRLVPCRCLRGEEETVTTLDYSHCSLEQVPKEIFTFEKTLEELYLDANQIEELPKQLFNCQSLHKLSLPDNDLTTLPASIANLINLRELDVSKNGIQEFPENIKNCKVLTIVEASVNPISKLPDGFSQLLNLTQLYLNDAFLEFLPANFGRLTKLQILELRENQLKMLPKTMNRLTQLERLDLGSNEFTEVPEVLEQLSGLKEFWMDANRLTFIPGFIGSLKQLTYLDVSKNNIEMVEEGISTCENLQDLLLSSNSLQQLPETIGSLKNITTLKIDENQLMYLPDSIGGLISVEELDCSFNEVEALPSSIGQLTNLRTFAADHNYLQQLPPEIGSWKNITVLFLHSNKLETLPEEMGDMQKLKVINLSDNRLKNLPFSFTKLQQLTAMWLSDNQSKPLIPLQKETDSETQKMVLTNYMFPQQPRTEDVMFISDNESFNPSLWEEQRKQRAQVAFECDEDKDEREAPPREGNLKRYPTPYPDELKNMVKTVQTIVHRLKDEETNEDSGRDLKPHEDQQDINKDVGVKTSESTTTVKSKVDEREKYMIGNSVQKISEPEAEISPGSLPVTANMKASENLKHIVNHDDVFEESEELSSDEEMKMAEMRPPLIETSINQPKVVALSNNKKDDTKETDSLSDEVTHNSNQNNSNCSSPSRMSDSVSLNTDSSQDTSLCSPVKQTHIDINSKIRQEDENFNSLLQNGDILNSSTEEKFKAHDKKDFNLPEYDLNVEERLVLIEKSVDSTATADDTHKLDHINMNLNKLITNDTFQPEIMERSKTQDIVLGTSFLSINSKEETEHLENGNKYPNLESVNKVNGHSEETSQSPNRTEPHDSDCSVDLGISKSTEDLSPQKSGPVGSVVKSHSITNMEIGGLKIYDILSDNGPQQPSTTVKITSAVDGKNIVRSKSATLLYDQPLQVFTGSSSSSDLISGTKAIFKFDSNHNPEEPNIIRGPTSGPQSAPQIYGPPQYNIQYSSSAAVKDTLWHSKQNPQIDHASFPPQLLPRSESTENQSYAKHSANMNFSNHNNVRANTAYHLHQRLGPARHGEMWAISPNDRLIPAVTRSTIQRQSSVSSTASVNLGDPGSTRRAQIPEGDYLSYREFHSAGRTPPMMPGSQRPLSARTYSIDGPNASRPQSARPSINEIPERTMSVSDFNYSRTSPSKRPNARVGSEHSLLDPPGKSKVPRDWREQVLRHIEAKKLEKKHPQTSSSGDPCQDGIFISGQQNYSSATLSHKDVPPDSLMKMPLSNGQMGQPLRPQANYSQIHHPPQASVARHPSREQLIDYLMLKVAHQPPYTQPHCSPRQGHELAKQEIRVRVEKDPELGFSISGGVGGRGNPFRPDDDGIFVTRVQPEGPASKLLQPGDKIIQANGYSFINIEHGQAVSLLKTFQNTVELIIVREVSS
How it was run: as §1

Question: What does the source list for “KTMPAATYRLLTGQEQPVYL (Biotin-KTMPAATYRLLTGQEQPVYL) [MINT-3]”?
Answer: Classification [1]: 2 (A450 nm 1-2); Classification [2]: 2 (A450 nm 1-2)

Question: For `CC[C@H](C)[C@H](NC(=O)[C@H](CO)NC(=O)[C@H](CCC(=O)O)NC(=O)[C@H](Cc1ccc(O)cc1)NC(=O)[C@H](CC(=O)O)NC(=O)[C@H](CC(N)=O)NC(=O)[C@H](CCC(=O)O)NC(=O)[C@H](CCCCN)NC(=O)CCCC[C@@H]1SC[C@@H]2NC(=O)N[C@@H]21)C(=O)N[C@@H](CO)C(=O)N[C@@H](CC(=O)O)C(=O)N[C@@H](CC(C)C)C(=O)N[C@@H](CCC(N)=O)C(=O)N[C@@H](CCC(N)=O)C(=O)NCC(=O)N[C@@H](CCCNC(=N)N)C(=O)N[C@@H](CC(=O)O)C(=O)N[C@H](C(=O)N[C@H](C(=O)N[C@@H](CCCNC(=N)N)C(=O)N[C@@H](CC(C)C)C(=O)O)[C@@H](C)O)[C@@H](C)CC` [PAG] (Biotin-KENDYESISDLQQGRDITRL-OH; C-terminus assumed), which Classification [1] is on record?
Answer: The Classification was 1 (A450 nm 0-1).

Question: How did the Classification [1] turn out when `CC(C)C[C@H](NC(=O)[C@H](CC(=O)O)NC(=O)[C@H](CO)NC(=O)[C@H](CCC(=O)O)NC(=O)CNC(=O)[C@H](Cc1ccc(O)cc1)NC(=O)[C@H](CC(C)C)NC(=O)[C@H](C)NC(=O)[C@H](CO)NC(=O)[C@H](CO)NC(=O)[C@H](Cc1ccccc1)NC(=O)[C@H](C)NC(=O)[C@H](C)NC(=O)[C@H](Cc1ccc(O)cc1)NC(=O)[C@H](CC(=O)O)NC(=O)[C@H](CC(C)C)NC(=O)[C@H](C)NC(=O)CNC(=O)[C@@H]1CCCN1C(=O)[C@@H](NC(=O)CCCC[C@@H]1SC[C@@H]2NC(=O)N[C@@H]21)C(C)C)C(=O)O` [a-actinin 2] (Biotin-VPGALDYAAFSSALYGESDL-OH; C-terminus assumed) was run?
Answer: The Classification was 1 (A450 nm 0-1).

Question: What about the Classification [3] of the same compound?
Answer: The Classification was 1 (A450 nm 0-1).

Question: And the Classification [2]?
Answer: The Classification was 2 (A450 nm 1-2).
